Measurements from BigSolDB 2.1.

NC(N)=S
solubility (mole fraction)
Conditions	283.15 K	288.15 K	293.15 K	298.15 K	303.15 K	308.15 K	313.15 K	318.15 K	323.15 K
in 2-butanone	0.0135	0.0154	0.0171	0.0189	0.0203	0.0219	0.0234	0.0247	0.0264
in acetone	0.0348	0.0364	0.0375	0.0389	0.0401	0.042	0.0438	0.0465	0.0482
in acetonitrile	0.00865	0.00982	0.0107	0.012	0.0134	0.0146	0.016	0.018	0.0196
in ethanol	0.0172	0.02	0.0227	0.0254	0.0285	0.0315	0.0353	0.0394	0.0442
in ethyl acetate	0.00497	0.00519	0.00548	0.0058	0.0062	0.00664	0.00718	0.00769	0.00814
in isobutanol	0.00827	0.0101	0.0116	0.0132	0.0152	0.0171	0.0189	0.0224	0.0251
in isopropanol	0.0133	0.0151	0.0168	0.019	0.0225	0.0246	0.0273	0.0308	0.0344
in methanol	0.0423	0.0471	0.0521	0.0596	0.0644	0.07	0.0761	0.0848	0.0944
in methyl acetate	0.00556	0.00628	0.00673	0.00747	0.00814	0.00885	0.00951	0.0102	0.0109
in n-butanol	0.0104	0.0121	0.0133	0.015	0.0173	0.0195	0.0212	0.0238	0.0274
in n-propanol	0.0128	0.0143	0.0157	0.0177	0.0209	0.0231	0.0255	0.029	0.0326
in water	0.0211	0.0265	0.0325	0.0396	0.0493	0.0592	0.0701	0.0835	0.102
